Tests used:
TIFA-TdT THP1 cells = test: TIFAsome formation assay; type: cell-based, human
Protocol: THP1-TIFA-tdTomato cells (1*10^6) were stimulated with various human plasma samples (100 μl) for 30 mins in a 37° C. water bath in final volume of 200 μl. Cells were harvested, washed with PBS+2% FBS+2 mM EDTA (MACS buffer) and fixed with 4% Paraformaldehyde (PFA, Cat no. 15710, Electron Microscopy Sciences). After fixation, cells were washed again and then resuspended in 50 μl MACS buffer. Cells were then analyzed for TIFAsome formation on an Amnis Imagestream Mk II Imaging Flow Cytometer ISX-100 (Luminex) according to the manufacturer's instructions. Downstream analysis was performed in IDEAS analysis software (Amnis). TIFAsome positive cells were identified by gating on Mean Pixel Intensity and Max Pixel Intensity for bright puncta analysis using the IDEAS Image Data Exploration and Analysis Software. A standard curve was prepared by calculating % TIFAsome positive cells using samples which were stimulated with serial increasing doses of ADP-heptose covering the concentration range of 10 to 100,000 ng/ml. […]
THP1-TIFA-tdTomato-GFP cells were suspended at 1×10^6 cells/mL and treated with either human plasma samples (50 μl) in final volume of 200 μl for 30 minutes, or the inhibitor for 1 hour to allow for entry into the cell and then stimulated with ADP-heptose for 30 minutes. […] Images were acquired using a Nikon Ni-E Upright widefield fluorescent scope and analyzed using Nikon Elements.

Dnmt3a^−/− HSCs = test: Serial colony replating; type: cell-based, mouse; details: compared to vehicle
Protocol: (§1) (A) Heatmap representing gene expression analysis of HSPCs isolated from Dnmt3a^WT or Dnmt3a^KO or Dnmt3a^KO; Alpk1^KO mice treated with either H2O or ADP-heptose for 90 minutes in vitro as determined by RNA-sequencing from three independent replicates (1.5 fold; P<0.05). (B) Gene Set Enrichment Analysis (GSEA) of Dnmt3a^KO cells treated with ADP-heptose versus H2O. […] NES, normalized enrichment score. Absolute enrichment score (ES) and corresponding P value are shown for each pathway. (D) Enrichment of transcription factors was determined with the ENCODE and CHIP Enrichment Analysis (ChEA) libraries using genes that are overexpressed in ADP-heptose-stimulated Dnmt3a^WT versus H2O-stimulated Dnmt3a^WT (left panel) or ADP-heptose-stimulated Dnmt3a^KO versus H2O-stimulated Dnmt3a^KO HSPCs (right panel). (E) Representative flow cytometric profile of EdU+HSCs after ADP-heptose or H2O treatment. […] In each plating, colonies were scored at day 14. […] (L) Colony forming potential of Dnmt3a^WT or Dnmt3a^KO HSPCs was evaluated upon treatment with either vehicle, ADP-heptose, or ADP-heptose and UBE2N inhibitor. (M) CD34+ MDS BM and normal CD34+ BM cells treated with vehicle, ADP-heptose, or ADP-heptose and UBE2N inhibitor were evaluated for colony formation in methylcellulose. […]

[1] = tested on: Dnmt3a; Alpk1 deficient HSCs; test: Serial colony replating; type: cell-based, mouse
Protocol: as §1

Nc1ncnc2c1ncn2[C@@H]1O[C@H](COP(=O)(O)OP(=O)(O)O[C@@H]2O[C@H]([C@H](O)CO)[C@@H](O)[C@H](O)[C@@H]2O)[C@@H](O)[C@H]1O [ADP-heptose, ADP-D-glycero-β-D-manno-heptose]
TIFAsome formation (discrete puncta in the cytoplasm) (TIFA-TdT THP1 cells): rapidly induce TIFAsome formation | serial colony formation (Dnmt3a^−/− HSCs): significantly increased serial colony formation | colony replating response to ADP-heptose [1]: did not respond
